Laboratory results as given in patent US10774046B2, “Inhibitors for the treatment of cancer and related methods” (UNIVERSITY OF LOUISVILLE RESEARCH FOUNDATION, INC., priority 2017, dated 2020).

Key:
human recombinant PFKFB4 = human recombinant PFKFB4 (Homo sapiens, UniProt Q16877); experiment: ADP-Glo kinase assay; type: biochemical
Procedure: The fructose-6-phosphate kinase activity of human recombinant PFKFB4 in the presence of DMSO±indicated 5MPN concentrations was assayed as previously described. The activity of 5MPN against 97 kinases was examined using a commercially available active-site dependent competition binding assay core service (KINOMEscanEDGE) that quantifies the capacity of test agents to compete with an immobilized, active-site directed ligand using a DNA-tagged kinase and immobilized ligand and compound. For example, enzyme inhibition was studied using an ADP-Glo assay. The effect of MPN-2 on the activity of recombinant human PFKFB4 enzyme was examined in an ADP-Glo assay (Promega), which measures ADP formed from a kinase reaction. ADP is converted into ATP, which is converted into light by a luciferase. PFKFB4 protein was exposed to MPN-2 at indicated concentrations in the presence of ATP and fructose-6-phosphate and following manufacturer's instructions, ADP-Glo and kinase detections reagents were added. The data are shown as the decrease in luminescence caused by MPN-2 relative to DMSO.
Method: The efficacy of Formula (VIII) in inhibition of the kinase activity of the PFKFB4 enzyme was examined by exposing recombinant human PFKFB4 protein to Formula (VIII) in the ADP-Glo kinase assay (Promega) which measures ADP formed through a kinase reaction. Briefly, recombinant protein, ATP, substrate and Formula (VIII) were incubated together for the kinase reaction followed by the addition of ADP-Glo reagent, used to terminate the kinase reaction. Lastly, a kinase detection reagent was added to convert the newly formed ADP to ATP which was measured by a luciferase reaction. Data are shown in FIG. 10 as the decrease in luminescence caused by Formula (VIII) relative to DMSO.
Method: The efficacy of FB4-32 and FB4-35 in inhibition of the kinase activity of the PFKFB4 enzyme was examined by exposing recombinant human PFKFB4 protein to FB4-32 and FB4-35 in the ADP-Glo kinase assay (Promega) which measures ADP formed through a kinase reaction. Briefly, recombinant protein, ATP, substrate and FB4-32 or FB4-35 were incubated together for the kinase reaction followed by the addition of ADP-Glo reagent to terminate the kinase reaction. Last, a kinase detection reagent was added to convert the newly formed ADP to ATP which was measured by a luciferase reaction. Data are shown as the decrease in luminescence caused by FB4-32 and FB4-35 relative to DMSO.

[1] = oral and intravenous pharmacokinetic properties; type: in vivo; details: CD-1 mice (N=3)
LLC tumors = experiment: tumor glucose uptake by FDG micro-PET; type: in vivo, C57BL/6 mice
Procedure: At the end of the experiment, animals were euthanized, tumors removed and sections fixed in 10% formaldehyde for immunohistochemistry or snap-frozen in liquid nitrogen for analyses. Subsets of tumor-bearing mice (n=3) were injected i.p. with 2-[^18F]-fluoro-2-deoxyglucose (FDG, 150 μCi, 100 μl) and imaged by micro-positron emission tomography as previously described. Regions of interest in the tumors and cerebellum were quantified in quadruplicate and expressed as the mean±SD of the tumor:cerebellar FDG uptake ratio. Animal experiments were approved by the University of Louisville Institutional Animal Care and Use Committee.
Method: FDG-PET was conducted on tumor-bearing mice to determine acute effects of Formula (VIII) on glucose uptake. C57BL/6 mice (Charles River) with subcutaneous Lewis lung carcinoma tumors were injected intraperitoneally with 100 μCi of ^18F-fluoro-2-deoxy-glucose under isoflurane anesthesia and subjected to a 15-minute static scan 45 minutes after tracer injection at baseline. […] Tumor/cerebellum ROI (regions of interest) were quantified, representative sagittal cuts from mice are shown with arrows showing the tumors on the animals. (* signifies statistical significance).

LLC xenografts [2] = experiment: Ki67 immunohistochemistry of tumors; type: in vivo, C57BL/6 mice; details: 120 mg/kg by gavage daily, ten days
Procedure: Formalin-fixed, paraffin-embedded tissue sections were processed as previously described then incubated with anti-Ki-67 primary antibody (Abcam) overnight, followed by HRP-linked goat anti-rabbit secondary antibody (1:300, Pierce). Sections were developed with 3,3′-diaminobenzidine tetrahydrochloride, counterstained, scanned and analyzed with the positive pixel count algorithm as previously described. Data are depicted as % positive pixels/total pixels±SD.

LLC xenografts [3] = experiment: intratumoral F2,6BP; type: in vivo, C57BL/6 mice; details: 120 mg/kg by gavage daily, 10 days
Procedure: Cells or tissues were prepared as previously described and F2,6BP content measured using a coupled enzyme reaction following a modification of the method of Van Schaftingen et al (VAN SCHAFTINGEN E et al. “A kinetic study of pyrophosphate:fructose-6-phosphate phosphotransferase from potato tubers. Application to a microassay of fructose 2,6-bisphosphate” Eur J Biochem (1982) Vol. 129, No. 1, pp. 191-195) and normalized to total cellular protein measured by the bicinchoninic acid assay (BCA, Thermo Scientific). For example, H460 cells were exposed to the indicated concentrations of MPN-2. In order to measure F2,6BP, cells were harvested, washed with PBS, lysed in NaOH/Tris acetate by heating at 80° C. and lysates neutralized to pH 7.2. F2,6BP content was measured using a coupled enzyme reaction following a modified method of Van Schaftingen et al (VAN SCHAFTINGEN E et al. “A kinetic study of pyrophosphate:fructose-6-phosphate phosphotransferase from potato tubers. Application to a microassay of fructose 2,6-bisphosphate” Eur J Biochem (1982) Vol. 129, No. 1, pp. 191-195). The F2,6BP concentration was normalized to total cellular protein measured by the bicinchoninic acid assay (BCA, Thermo Scientific). All data are expressed as the mean±SD of three experiments. Statistical significance was assessed by the two-sample t test (independent variable). […]

Sequence of human recombinant PFKFB4 (Q16877 whole entry): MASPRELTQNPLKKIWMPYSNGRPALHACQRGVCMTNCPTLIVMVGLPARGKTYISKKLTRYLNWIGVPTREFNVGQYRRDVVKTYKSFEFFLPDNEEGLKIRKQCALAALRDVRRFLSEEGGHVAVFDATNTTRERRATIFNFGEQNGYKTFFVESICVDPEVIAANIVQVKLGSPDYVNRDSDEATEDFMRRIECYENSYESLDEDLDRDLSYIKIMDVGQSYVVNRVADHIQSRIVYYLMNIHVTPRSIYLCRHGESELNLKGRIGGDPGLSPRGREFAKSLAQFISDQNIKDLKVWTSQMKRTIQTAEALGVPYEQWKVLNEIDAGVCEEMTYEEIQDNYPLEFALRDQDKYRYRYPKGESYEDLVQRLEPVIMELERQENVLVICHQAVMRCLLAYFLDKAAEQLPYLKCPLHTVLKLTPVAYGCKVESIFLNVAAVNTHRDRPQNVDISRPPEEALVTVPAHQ

| kinase activity of the PFKFB4 enzyme (luminescence relative to DMSO) (human recombinant PFKFB4) | intravenous bioavailability [1] | oral bioavailability [1] | Compound | 2-[18F]-fluoro-2-deoxyglucose uptake (LLC tumors; 5MPN 120 mg/kg by gavage, once) | Ki67-positive cells (LLC xenografts [2]) | intratumoral F2,6BP (LLC xenografts [3]) | tumor FDG uptake (LLC tumors; 40 mg/kg PO x1, PET after 60 minutes) |
| --- | --- | --- | --- | --- | --- | --- | --- |
| inhibited | exhibits intravenous bioavailability | has oral bioavailability | 5-[(8-methoxy-2-methylquinolin-1-ium-4-yl)amino]pentyl nitrate [MPN-2] | – | – | – | – |
| – | – | – | COc1cccc2c(NCCCCCO[N+](=O)[O-])ccnc12 [5MPN, 5-[(8-methoxyquinolin-4-yl)amino]pentyl nitrate] | reduction | reduction in Ki67-positive cells | reduction | – |
| inhibited | – | – | COc1cccc2c(NCCCCCNC(=O)C(F)(F)F)ccnc12 [Formula (VIII), 2,2,2-trifluoro-N-(5-((8-methoxyquinolin-4-yl)amino)pentyl)acetamide] | – | – | – | decrease in tumor FDG uptake compared with vehicle |
